Test results: patent publication US10507207B2, “Non-nucleosidic inhibitors of reverse transcriptase as antagonists of cell proliferation and inducers of cell differentiation” (ISTITUTO SUPERIORE DI SANITA, priority 2001, dated 2019)

What was measured:
HL60 cells [1] = test: NBT dye reduction assay; type: cell-based, human; conditions: HL60, RA 1 μM, 4 days
NB4 cells [2] = test: NBT dye reduction assay; type: cell-based, human; conditions: NB4, RA 1 μM, 4 days
HL60 cells [3] = test: Growth, viable cell count; type: cell-based, human; conditions: HL60, RA 1 μM, 4 days
NB4 cells [4] = test: Cytofluorimetric analysis of cell surface markers; type: cell-based, human; conditions: NB4, RA 1 μM, 4 days
Excerpt: (§1) The induction of CD11b is associated with granulocytic differentiation, CD14 is considered a monocytic specific antigen and CD15 is a myelomonocytic antigen. Simultaneous induction of CD14 and CD11b relates to monocytic differentiation. […] In nevirapine-treated NB4 and HL60 cells, a strong induction of expression of CD15, and, to a lesser degree, CD11b and CD14 markers was detected.

HL60 cells [5] = test: Cytofluorimetric analysis of cell surface markers; type: cell-based, human; conditions: HL60, RA 1 μM, 4 days
Excerpt: as §1

NB4 cells [6] = test: Growth, viable cell count; type: cell-based, human; conditions: NB4, RA 1 μM, 4 days
Morris 3924A hepatoma = test: Morris 3924A rat hepatoma in vivo; conditions: efavirenz 1 mg/rat/day from day of inoculation; two treated rats; controls died at 27th day
Protocol: Rat strain: ACI/T inbred (about 180 gr)
Tumor: Morris 3924A hepatoma is a fast-growing tumor which develops in inbred ACI/T animals. Three weeks after inoculation the tumor size is about 10 cm^3.
Preparation of tumor cells: hepatoma tumor cells are prepared from the animal about two weeks after inoculation. The tumor is surgically removed from the animal, separated from connective and necrotic tissues and minced in small pieces. Tumor fragments are then suspended in sterile physiological solution and inoculated in the internal site of one thigh using a 20 ml-syringe with a large size needle. Routinely 0.5 ml of cell suspension are injected. The success rate of tumor implantation is nearly 99%.
On the eleventh day, hepatoma cells were inoculated subcutaneously in pre-treated and in three non-treated control rats.
Procedures and Results: Morris hepatoma cells were inoculated in 4 rats ([…]). The same day, treatment with efavirenz was initiated in two of them by injecting 1 mg/rat/day.

[7] = system: Saos-2 osteosarcoma cells; test: Cell proliferation by cell counting; type: cell-based, human; conditions: 20 μM efavirenz
Protocol: Samples were withdrawn at specific times and cells were counted in nevirapine-exposed and control (DMSO-exposed) cultures. […] Saos-2 osteosarcoma cells were the most slowly responsive type, and only after 5 days of exposure did the growth rate begin to decrease compared to control cultures.
(§2) The effect of efavirenz was further tested in human HeLa adenocarcinoma and Saos-2 osteosarcoma cells. Both cell lines were cultured in the conditions described above (Example 6). To establish if prolonged exposure to the drug improved the effectiveness of growth inhibition, both cell lines were exposed to efavirenz in two subsequent cycles: during the 1st cycle cells were continuously exposed to 20 μM efavirenz for 5 days; cells were then diluted, reseeded again and the 2nd cycle exposure was initiated the following day with fresh drug. […] The inhibitory effect was time-dependent, since in both HeLa and Saos-2 cultures, the 1st cycle of exposure (5 days) yielded a 1.6- and 1.5-fold reduction, respectively, whereas a 5- and 4-fold reduction was obtained in the 2nd cycle (carried out until day 20 from the onset of exposure).

[8] = system: HeLa adenocarcinoma cells; test: Cell proliferation by cell counting; type: cell-based, human; conditions: 20 μM efavirenz
Protocol: as §2

[9] = system: NIH/3T3 embryo fibroblasts; test: Cell proliferation by cell counting; type: cell-based, murine; conditions: efavirenz 10 and 20 μM, dose-dependent, vs non-exposed cells
Protocol: (§3) NIH/3T3 embryo fibroblasts and F9 teratocarcinoma cells were cultured in DMEM containing 10-20% fetal serum and two concentrations of efavirenz, i.e. 10 and 20 μM, diluted from a stock solution (10 mM) in 100% DMSO. Cells were plated at a density of 2-5×10^4 in 35 mm Petri dishes and exposed to efavirenz 5-6 hours later. Samples were withdrawn at specific times and cells were counted in efavirenz-exposed compared to parallel non-exposed cell cultures.

F9 teratocarcinoma cells = test: Cell proliferation by cell counting; type: cell-based, murine; conditions: efavirenz 10 and 20 μM, dose-dependent, vs non-exposed cells
Protocol: as §3

early mouse embryos = test: Early mouse embryo cultures from in vitro fertilization (IVF) assays; conditions: added to cultures of IVF embryos; preliminary studies
[10] = 2nd cycle (until day 20 from onset of exposure)

Structure (SMILES)	NBT+ (%) (HL60 cells [1])	NBT+ (%) (NB4 cells [2])	Viable cells N^0 × 10^5 (HL60 cells [3])	CD11b mean fluorescence intensity (NB4 cells [4])	CD14 mean fluorescence intensity (NB4 cells [4])	CD15 mean fluorescence intensity (NB4 cells [4])	CD11b mean fluorescence intensity (HL60 cells [5])	CD14 mean fluorescence intensity (HL60 cells [5])	CD15 mean fluorescence intensity (HL60 cells [5])	Viable cells N^0 × 10^5 (NB4 cells [6])	tumor development in treated rats (Morris 3924A hepatoma)	reduction in the rate of cell growth ([7]; 1st cycle of exposure (5 days))	reduction in the rate of cell growth [7, 10]	reduction in the rate of cell growth ([8]; 1st cycle of exposure (5 days))	reduction in the rate of cell growth [8, 10]	rate of proliferation [9]	rate of proliferation (F9 teratocarcinoma cells)	development of early mouse embryos (early mouse embryos)
CC1=C(/C=C/C(C)=C/C=C/C(C)=C/C(=O)O)C(C)(C)CCC1 [RA, retinoic acid]	31.2 ± 1.4%	80.6 ± 4.5%	6.5 ± 0.9 × 10^5	53.7 AU	19.1 AU	421.7 AU	15.3 AU	23.7 AU	609.7 AU	1.4 ± 0.1 × 10^5	–	–	–	–	–	–	–	–
O=C1Nc2ccc(Cl)cc2[C@@](C#CC2CC2)(C(F)(F)F)O1 [efavirenz, (−)-6-chloro-4-cyclopropylethynyl-4-trifluoromethyl-1,4,-dihydro-2H-3,1-benzoxazine-one]	–	–	–	–	–	–	–	–	–	–	only one of two treated animals developed a tumor of markedly smaller size, whereas the other remained totally healthy	1.5 fold	4 fold	1.6 fold	5 fold	decreases the rate of proliferation	decreases the rate of proliferation	early and effective developmental arrest
